Measurements reported in patent US5455242A, “Carboxyalkyl tricyclic derivatives useful as inhibitors of enkephalinase and ace” (Merrell Dow Pharmaceuticals Inc., priority 1993, dated 1995).

Target: T1, Enkephalinase (Rattus norvegicus, UniProt P07861)
T1 construct: Enkephalinase is partially purified from rat kidney; from tissue; host or cells: rat kidney (microvilli fraction)
T1 sequence (P07861 1-750): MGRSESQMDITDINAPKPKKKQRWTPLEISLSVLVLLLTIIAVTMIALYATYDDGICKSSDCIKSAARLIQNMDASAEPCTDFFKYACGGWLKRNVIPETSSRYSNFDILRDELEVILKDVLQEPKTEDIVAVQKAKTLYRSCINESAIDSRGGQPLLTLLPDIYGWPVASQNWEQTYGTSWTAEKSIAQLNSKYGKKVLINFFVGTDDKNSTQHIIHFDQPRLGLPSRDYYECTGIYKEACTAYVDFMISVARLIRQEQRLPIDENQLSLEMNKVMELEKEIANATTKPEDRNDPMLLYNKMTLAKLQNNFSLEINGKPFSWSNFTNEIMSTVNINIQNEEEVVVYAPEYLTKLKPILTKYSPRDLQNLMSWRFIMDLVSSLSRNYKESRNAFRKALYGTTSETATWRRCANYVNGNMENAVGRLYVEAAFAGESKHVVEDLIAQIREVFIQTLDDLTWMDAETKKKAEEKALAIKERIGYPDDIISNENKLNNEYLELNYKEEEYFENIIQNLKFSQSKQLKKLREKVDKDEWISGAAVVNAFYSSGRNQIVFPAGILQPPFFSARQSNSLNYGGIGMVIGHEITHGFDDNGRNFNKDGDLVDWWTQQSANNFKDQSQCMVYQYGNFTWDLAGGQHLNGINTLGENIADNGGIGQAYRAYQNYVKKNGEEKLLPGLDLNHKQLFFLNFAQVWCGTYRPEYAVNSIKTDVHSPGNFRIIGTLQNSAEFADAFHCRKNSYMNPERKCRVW
Assay: Enkephalinase inhibition (fluorometric assay, enzyme partially purified from rat kidney)
Type: biochemical
Settings: 50 mM HEPES pH 7.4, 25° C., 12 μM dansyl-D-AlaGly(p-nitro)PheGly
From the text: Enkephalinase is partially purified from rat kidney. The enzyme is extracted from the microvilli fraction by using Triton X-100 according to the method of Malfroy and Schwartz [J. Biol. Chem. 259, 14365-14370 (1984)]or by using a proteolytic treatment according to the method of Almenoff and Orlowski [Biochem. 22, 590-599 (1983)]. The enzyme is further purified by anion exchange chromatography (Mono Q™ column, Pharmacia) using a Pharmacia FPLC system. The enzyme activity may be measured by the fluorometric methods of Florentin et al. [Anal. Biochem. 141, 62-69 (1984)]or of Almenoff and Orlowski [J. Neurochemistry 42, 151-157 (1984)]. The enzyme is assayed in 50 mM HEPES buffer (pH 7.4) in a 3.0 mL reaction volume containing 12 μM of the substrate dansyl-D-AlaGly(p-nitro)PheGly(Km =40 μM) at 25° C. The substrate (and inhibitor) is added from a concentrated stock solution in DMSO (up to 0.1 mL DMSO final volume). The enzyme in a small volume (approximately 0.1 μg of FPLC purified protein) is added to initiate the reaction and the rate of fluorecense increase is recorded continuously using a fluorometer (excitation at 339 nm, emission at 562 nm).

For `O=C(O)CC(Cc1ccccc1)C(=O)N[C@H]1Cc2ccccc2[C@H]2CCC[C@@H](C(=O)O)N2C1=O` (stereo partly drawn) [101,287, [4S-[4α, 7α(R*), 12bβ]]-7-[(1-Oxo-2-carboxymethyl-3-phenylpropyl)amino]-1,2,3,4,6,7,8,12b-octahydro-6-oxopyrido[2,1-a][2]benzazepine-4-carboxylic acid], the Ki was 5 nM.
